Test [1] addresses T1, 5HT2A receptor (Homo sapiens, UniProt P28223). Nature of the test: biochemical. Details: expressed in transfected cells; crude membranes. In kind it is binding.
Test [2] has as its target T1, 5HT2A receptor. Briefly: cell-based. Details: expressed in transfected cells; host or cells: HEK293T cells, transient co-transfection. As to conditions: for Emax: HEK-293T.
The target of test [3] is T1, 5HT2A receptor. Nature of the test: cell-based. Details: expressed in transfected cells; host or cells: HEK293T cells, transient co-transfection. As to conditions: for Emax: HEK-293T. The source holds these as a separate data set.
The mark [4] stands for this setting: 5HT2A Ki (nM), secondary radioligand binding, Ki from IC50 by Cheng-Prusoff.
[5] abbreviates: 5HT2A β-Arr EC50 (nM), BRET1 beta-arrestin2 recruitment, HEK293T cells.
Setting [6] is: BRET1 beta-arrestin2 recruitment, HEK293T cells, normalized to 5-HT, read-out: 5HT2A β-Arr Emax (%).
Where [7] appears, read: BRET2 Gαq dissociation, HEK293T cells, read-out: 5HT2A Gq EC50.
Where [8] appears, read: BRET2 Gαq dissociation, HEK293T cells, normalized to 5-HT, read-out: 5HT2A Gq Emax (%).
[9] abbreviates: 5HT2A Ki (nM), secondary binding assay, Cheng-Prusoff.
Setting [10] is: 5HT2A β-Arr EC50 (nM), BRET1 beta-arrestin2 recruitment, HEK293T.
Setting [11] is: BRET1 beta-arrestin2 recruitment, HEK293T, normalized to 5-HT, read-out: 5HT2A β-Arr Emax (%).
[12] abbreviates: BRET2 Gαq dissociation, HEK293T, normalized to 5-HT, read-out: 5HTA Gq Emax (%).
Where [13] appears, read: 5HT2A Gq EC50 (nM), BRET2 Gαq dissociation, HEK293T cells.
Where [14] appears, read: BRET2 Gαq dissociation, HEK293T, read-out: 5HTA Gq EC50.

Read-outs that look alike come from different tables or passages of the source.

T1 sequence (P28223 whole entry): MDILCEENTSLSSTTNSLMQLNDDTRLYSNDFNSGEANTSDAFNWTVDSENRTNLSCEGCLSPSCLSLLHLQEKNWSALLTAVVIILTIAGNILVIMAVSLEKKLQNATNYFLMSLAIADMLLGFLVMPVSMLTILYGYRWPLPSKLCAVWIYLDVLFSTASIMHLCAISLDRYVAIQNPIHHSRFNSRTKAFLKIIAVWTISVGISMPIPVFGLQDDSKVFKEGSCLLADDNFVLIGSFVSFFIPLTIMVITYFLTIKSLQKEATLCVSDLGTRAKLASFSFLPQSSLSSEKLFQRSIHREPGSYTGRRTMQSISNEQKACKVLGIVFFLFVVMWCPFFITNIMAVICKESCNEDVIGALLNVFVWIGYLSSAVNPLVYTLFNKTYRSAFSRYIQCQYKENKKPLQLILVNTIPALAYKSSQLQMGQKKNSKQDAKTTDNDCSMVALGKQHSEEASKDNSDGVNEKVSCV

`Cc1cccc2[nH]cc(C3=CCCN(C)C3)c12` [Example 19, 4-methyl-3-(1-methyl-1,2,5,6-tetrahydropyridin-3-yl)-1H-indole]: the Ki (as a rule, the dissociation constant of the complex between target and ligand, obtained from inhibition or displacement) on 5HT2A receptor [1] (setting [4]) is 136 nM. Besides, the figures for the EC50 on 5HT2A receptor [2] (setting [5]) and on 5HT2A receptor [3] (setting [7]) were 102 nM and 9 nM, respectively. Moreover, the values for the Emax on 5HT2A receptor [2] (setting [6]) and at 5HT2A receptor [3] (setting [8]) were 40.4% and 75.9%, respectively.

At 5HT2A receptor [1] (setting [4]), `CN1CCC=C(c2n[nH]c3ccc(Cl)cc23)C1` [Example 101, 5-chloro-3-(1-methyl-1,2,5,6-tetrahydropyridin-3-yl)-1H-indazole] had an inhibition constant (Ki) of 141 nM. Also, the figures for the EC50 at 5HT2A receptor [2] (setting [5]) and on 5HT2A receptor [3] (setting [7]) were 292 nM and 16.2 nM, respectively. The Emax (as a rule, the maximal effect, on the per cent scale that the assay sets) is 80.7% at 5HT2A receptor [2] (setting [6]) and 74.2% on 5HT2A receptor [3] (setting [8]).

Turning to `C1=C(c2c[nH]c3cccnc23)CNCC1` [Example 138, 3-(1,2,5,6-tetrahydropyridin-3-yl)-1H-pyrrolo[3,2-b]pyridine], the affinity on 5HT2A receptor [1] (setting [9]), expressed as Ki, was 147 nM. For the same compound, the half-maximal effective concentration (EC50) (commonly the concentration that produces a half-maximal response) came to 1420 nM at 5HT2A receptor [2] (setting [10]) and 118 nM on 5HT2A receptor [3] (5HTA Gq EC50 (nM), BRET2 Gαq dissociation, HEK293T). Also, the maximum response (Emax) stood at 101% at 5HT2A receptor [2] (setting [11]) and 79% on 5HT2A receptor [3] (setting [12]).

At 5HT2A receptor [1] (setting [4]), `Clc1ccnc2[nH]cc(C3=CCCNC3)c12` [Example 11, 4-chloro-3-(1,2,5,6-tetrahydropyridin-3-yl)-1H-pyrrolo[2,3-b]pyridine] registered a Ki of 273 nM. The concentration giving a half-maximal response (EC50) on 5HT2A receptor [2] (setting [5]) is 904 nM; on 5HT2A receptor [3] (setting [13]) it was 79.9 nM. Also, the values for the Emax at 5HT2A receptor [2] (setting [6]) and on 5HT2A receptor [3] (setting [8]) were 43.7% and 84.7%, respectively.

Turning to `CN1CCC=C(c2n[nH]c3ccccc23)C1` [Example 46, 3-(1-methyl-1,2,5,6-tetrahydropyridin-3-yl)-1H-indazole], the inhibition constant Ki at 5HT2A receptor [1] (secondary radioligand binding, Ki from IC50 by Cheng-Prusoff, read-out: 5HT2A Ki) worked out at 87.3 nM. In addition, the EC50 on 5HT2A receptor [2] (setting [5]) was found to be 115 nM; on 5HT2A receptor [3] (setting [7]) it was 3.3 nM. Also, the Emax was 21.9% on 5HT2A receptor [2] (setting [6]) and 62.6% at 5HT2A receptor [3] (setting [8]).

On 5HT2A receptor [1] (setting [9]), `FCCCN1CCC=C(c2n[nH]c3c(Cl)cccc23)C1` [Example 165, 7-chloro-3-(1-(3-fluoropropyl)-1,2,5,6-tetrahydropyridin-3-yl)-1H-indazole] yielded a Ki of 342 nM. In addition, the 50% effective concentration (EC50) on 5HT2A receptor [2] (setting [10]) is 157 nM; at 5HT2A receptor [3] (setting [14]), 85.8 nM. The values for the Emax on 5HT2A receptor [2] (setting [11]) and on 5HT2A receptor [3] (setting [12]) were 28.7% and 65%, respectively.

In turn, `CCCN1CCC=C(c2n[nH]c3c(CC)cccc23)C1` [Example 237, 7-ethyl-3-(1-propyl-1,2,5,6-tetrahydropyridin-3-yl)-1H-indazole] displayed a Ki on 5HT2A receptor [1] (setting [9]) of 389 nM. The results for the EC50 on 5HT2A receptor [2] (setting [10]) and at 5HT2A receptor [3] (setting [14]) were 1580 nM and 33.6 nM, respectively. Moreover, the Emax on 5HT2A receptor [2] (setting [11]) stood at 39.8%; on 5HT2A receptor [3] (setting [12]), 37.7%.

`Cc1ccc2c(C3=CCCNC3)n[nH]c2c1` [Example 76, 6-methyl-3-(1,2,5,6-tetrahydropyridin-3-yl)-1H-indazole] had a Ki at 5HT2A receptor [1] (setting [4]) of 2460 nM. Also, the results for the EC50 on 5HT2A receptor [2] (setting [5]) and at 5HT2A receptor [3] (setting [13]) were 1500 nM and 118 nM, respectively. For the same compound, the maximal effect (Emax) on 5HT2A receptor [2] (setting [6]) amounted to 88.7%; at 5HT2A receptor [3] (setting [8]), 93.6%.

With `CN1CCC=C(c2n[nH]c3c(Cl)cc(F)cc23)C1` [Example 130, 7-chloro-5-fluoro-3-(1-methyl-1,2,5,6-tetrahydropyridin-3-yl)-1H-indazole], the inhibitory constant (Ki) at 5HT2A receptor [1] (secondary binding assay, Cheng-Prusoff, read-out: 5HT2A Ki) stood at 19.5 nM. Moreover, the EC50 on 5HT2A receptor [2] (BRET1 beta-arrestin2 recruitment, HEK293T, read-out: 5HT2A β-Arr EC50) is 165 nM; at 5HT2A receptor [3] (setting [14]) it was 12.9 nM. Also, the Emax at 5HT2A receptor [2] (setting [11]) was 88.5%; on 5HT2A receptor [3] (setting [12]), 91.4%.

As for `CN1CC=C(c2n[nH]c3c(Cl)cccc23)C1` [Example 207, 7-chloro-3-(1-methyl-2,5-dihydro-1H-pyrrol-3-yl)-1H-indazole], the inhibition constant Ki on 5HT2A receptor [1] (setting [9]) was 203 nM. The values for the EC50 at 5HT2A receptor [2] (setting [10]) and at 5HT2A receptor [3] (setting [14]) were 129 nM and 50.9 nM, respectively. For the same compound, the maximal effect (Emax) at 5HT2A receptor [2] (setting [11]) came out at 47.8%; at 5HT2A receptor [3] (setting [12]), 94.7%.

At 5HT2A receptor [1] (setting [4]), `Clc1cccc2c(C3CCCNC3)n[nH]c12` (stereo not shown) [Example 114, 7-chloro-3-(piperidin-3-yl)-1H-indazole] displayed a Ki of 1240 nM. The 50% effective concentration (EC50) on 5HT2A receptor [2] (setting [5]) was 468 nM; on 5HT2A receptor [3] (setting [13]), 290 nM. In addition, the Emax worked out at 29.3% on 5HT2A receptor [2] (read-out: 5HT2A β-Arr Emax (%), BRET1 beta-arrestin2 recruitment, HEK293T cells, normalized to 5-HT) and 74.5% at 5HT2A receptor [3] (read-out: 5HT2A Gq Emax (%), BRET2 Gαq dissociation, HEK293T cells, normalized to 5-HT).
